From patent publication US6458811B1, “Benzothiophenes formulations containing same and methods” (Eli Lilly and Company, priority 1996, dated 2002)
Where a name gives a salt, the structure may show the parent alone.

Assays:
[1] = Plasma AUC of unconjugated raloxifene in rats dosed in diet; format: in vivo, Fischer 344 rats; details: 0.4% w/w in diet for seven days, hydrochloride
Procedure: In an attempt to evaluate these differences upon in vivo absorption, a study was conducted in Fischer 344 rats.

[2] = Dissolution of bulk lots handfilled into capsules, 0.1% aqueous polysorbate 80, USP Apparatus II; format: physicochemical; details: hydrochloride; for % Dissolved: 60.0 mg in capsule; for % Dissolved at 10 Minutes: Table 8, 10 minutes; for % Dissolved at 30 Minutes: Table 8, 30 minutes
Procedure: Data was collected at 10, 20, 30 and 45 minutes to produce a dissolution profile.

[3] = Surface area by nitrogen adsorption (BET); format: physicochemical; details: bulk lot
[4] = Particle size distribution by laser light diffraction (Horiba LA900); format: physicochemical; details: hydrochloride
Procedure: In preparing the particulate compound of the invention a compound of formula I, in its raw state, is first characterized for size using an instrument adapted to measure equivalent spherical volume diameter, that is to say a Horiba LA900 Laser Scattering Particle Size Distribution Analyzer or equivalent instrument.
Sample is added to the dispersant until an acceptable level of laser light obscuration achieved at which point the particle size distribution is measured. […] The dispersant solution was filtered through a 0.2 micron microporous membrane filter to provide the necessary particle-free suspending dispersant.
Within five minutes of the preparation of the dispersion, triplicate particle size measurements were performed. Triplicate measurements are effected as a minimum check a) to produce more reliable measurements and b) to check the equivalent sampling of the suspended material has been reproducible i.e., the suspension has not settled.
From this, the mean equivalent spherical volume diameter value was derived (50% undersize value) together with the standard deviation of the distribution calculated as above.

MCF-7 cells = MCF-7 cells in cell culture; cited from earlier work
[5] = tested on: uterotrophic response to estrogen; details: immature rats, versus tamoxifen; cited from earlier work
uterotrophic response = details: OVX rats; cited from earlier work

SMILES | AUC [1] [ng·h/mL] | % Dissolved ([2]; 10 min) [%] | % Dissolved ([2]; 20 min) [%] | % Dissolved ([2]; 30 min) [%] | % Dissolved ([2]; 45 min) [%] | % Dissolved at 10 Minutes [2] [%] | % Dissolved at 30 Minutes [2] [%] | Surface Area ([3]; hydrochloride) [m^2/gm] | 90% less than ([4]; bulk lots of Table 6) [μm] | mean particle size ([4]; bulk lots of Table 6) [μm] | Surface Area ([3]; listed as #2, hydrochloride) [m^2/gm] | Surface Area ([3]; listed as lot #2, hydrochloride) [m^2/gm] | mean particle size ([4]; as restated) [microns] | 90% less than ([4]; bulk lots of Table 6, Ball Milled bulk lot) [μm] | 90% less than ([4]; bulk lots of Table 6, Slurry Milled bulk lot) [μm] | inhibition of estrogen-dependent proliferation (MCF-7 cells) | antagonism of the uterotrophic response to estrogen [5] | uterotrophic response (uterotrophic response)
O=C(c1ccc(OCCN2CCCCC2)cc1)c1c(-c2ccc(O)cc2)sc2cc(O)ccc12 [Lot #1, raloxifene hydrochloride] | 10056 | 51 | 68 | 78 | 88 | 50 | 78 | 6.09 | 6.8 | 3.9 | – | – | – | – | – | – | – | –
O=C(c1ccc(OCCN2CCCCC2)cc1)c1c(-c2ccc(O)cc2)sc2cc(O)ccc12 [Raloxifene, 6-hydroxy-2-(4-hydroxyphenyl)-3-[4-(2-piperidinoethoxy)benzoyl]benzo[b]-thiophene] | – | – | – | – | – | – | – | – | – | – | – | – | – | – | – | inhibits estrogen-dependent proliferation | more effective than tamoxifen | only minimal uterotrophic response that was not dose-dependent

Further lines, with some results ahead:

AUC [1] [ng·h/mL] | % Dissolved ([2]; 10 min) [%] | % Dissolved ([2]; 20 min) [%] | % Dissolved ([2]; 30 min) [%] | % Dissolved ([2]; 45 min) [%] | % Dissolved at 10 Minutes [2] [%] | % Dissolved at 30 Minutes [2] [%] | Surface Area ([3]; hydrochloride) [m^2/gm] | 90% less than ([4]; bulk lots of Table 6) [μm] | mean particle size ([4]; bulk lots of Table 6) [μm] | Surface Area ([3]; listed as #2, hydrochloride) [m^2/gm] | Surface Area ([3]; listed as lot #2, hydrochloride) [m^2/gm] | mean particle size ([4]; as restated) [microns] | 90% less than ([4]; bulk lots of Table 6, Ball Milled bulk lot) [μm] | 90% less than ([4]; bulk lots of Table 6, Slurry Milled bulk lot) [μm] | SMILES | inhibition of estrogen-dependent proliferation (MCF-7 cells) | antagonism of the uterotrophic response to estrogen [5] | uterotrophic response (uterotrophic response)
3329 | 15 | 27 | 35 | 49 | 15 | 35 | – | – | – | – | – | – | – | – | O=C(c1ccc(OCCN2CCCCC2)cc1)c1c(-c2ccc(O)cc2)sc2cc(O)ccc12 [Lot #4, raloxifene hydrochloride] | – | – | –
8037 | 41 | 60 | 68 | 74 | 41 | 68 | – | 13.9 | 8.4 | 2.28 | 2.28 | 8.4 | – | – | O=C(c1ccc(OCCN2CCCCC2)cc1)c1c(-c2ccc(O)cc2)sc2cc(O)ccc12 [Lot #2, raloxifene hydrochloride] | – | – | –
5743 | 31 | 45 | 54 | 64 | 31 | 55 | 2.10 | – | – | – | – | 23.3 | 55.3 | 89 | O=C(c1ccc(OCCN2CCCCC2)cc1)c1c(-c2ccc(O)cc2)sc2cc(O)ccc12 [Lot #3, raloxifene hydrochloride] | – | – | –
